The values that follow come from ChEMBL document CHEMBL3351456, “Synthesis and antiviral activities of 3-deaza-3-fluoroaristeromycin and its 5' analogues” (Bioorg Med Chem, 2014).

Each structure is given as a SMILES string.

One data set relates to Hepatitis B virus. Kind of data set: Antiviral activity against HBV. In kind it is functional, organism-based.
Data set [1] in a line: Selectivity index, ratio of CC50 for human MRC5 cells to IC50 for Measles virus. In kind it is functional.
Data set [2] in a line: Selectivity index, ratio of CC50 for HFF cells to IC50 for human cytomegalovirus. In kind it is functional.
A short description of data set [3]: Cytotoxicity against African green monkey Vero 76 cells. It is filed as cell-based. Particulars: chlorocebus sabaeus.
Data set [4] in a line: Inhibition of rabbit erythrocyte SAHase using S-adenosyl-L-homocysteine as substrate assessed as L-homocysteine formation incubated for 5 mins prior to substrate addition measured after 1 hr. Details: species or system Oryctolagus cuniculus.
In another data set the test system is Measles morbillivirus. Put plainly: Antiviral activity against Measles virus infected in human MRC5 cells. In kind it is functional, organism-based.
The next data set concerns Human betaherpesvirus 5. Kind of data set: Antiviral activity against human cytomegalovirus infected in HFF cells. In kind it is functional, organism-based. Particulars: Human betaherpesvirus 5, HFF.
A further data set relates to Monkeypox virus. Put plainly: Antiviral activity against Monkeypox virus infected in African green monkey Vero E6 cells. In kind it is functional, organism-based.
Data set [5] can be described thus: Cytotoxicity against HFF cells. It is filed as cell-based. Particulars: human.
Data set [6] can be described thus: Selectivity index, ratio of CC50 for African green monkey Vero cells to IC50 for Pichinde virus. In kind it is functional.
A short description of data set [7]: Cytotoxicity against human MRC5 cells. In kind it is cell-based.
Data set [8] is described as follows: Selectivity index, ratio of CC50 for African green monkey Vero 76 cells to IC50 for Rift Valley fever virus. In kind it is functional.
Data set [9] can be described thus: Selectivity index, ratio of CC50 for African green monkey Vero cells to IC50 for Tacaribe virus. In kind it is functional.
Data set [10] in a line: Cytotoxicity against HEK293 cells. Particulars: human. In kind it is cell-based.
Another data set has as its system Rift Valley fever virus. Kind of data set: Antiviral activity against Rift Valley fever virus infected in African green monkey Vero 76 cells. It is filed as functional, organism-based.
Data set [11] can be described thus: Cytotoxicity against African green monkey Vero cells. In kind it is cell-based. As to conditions: chlorocebus sabaeus.
The nature of data set [12]: Selectivity index, ratio of CC50 for African green monkey Vero E6 cells to IC50 for Monkeypox virus. It is filed as functional.
The next data set deals with Vaccinia virus. Kind of data set: Antiviral activity against Vaccinia virus infected in HFF cells. It is filed as functional, organism-based. Particulars: Orthopoxvirus vaccinia.
Data set [13] in a line: Selectivity index, ratio of CC50 for HFF cells to IC50 for Vaccinia virus. It is filed as functional.
The test system of the next data set is Human papillomavirus. Kind of data set: Antiviral activity against Human papillomavirus infected in HEK293 cells. It is filed as functional, organism-based.
A short description of data set [14]: Cytotoxicity against African green monkey Vero E6 cells. In kind it is cell-based. Particulars: chlorocebus sabaeus.
Another data set concerns Pichinde virus. Kind of data set: Antiviral activity against Pichinde virus infected in African green monkey Vero 76 cells. In kind it is functional, organism-based.
A further data set concerns Tacaribe virus. Kind of data set: Antiviral activity against Tacaribe virus infected in African green monkey Vero 76 cells. It is filed as functional, organism-based. As to conditions: Mammarenavirus tacaribeense.
Data set [15] can be described thus: Selectivity index, ratio of CC50 for HEK293 cells to IC50 for Human papillomavirus. In kind it is functional.

As for `Nc1ncc(F)c2c1ncn2[C@@H]1O[C@H](CO)[C@@H](O)[C@H]1O`, in the data set on Hepatitis B virus, the EC50 (usually the midpoint of the concentration-response curve) was determined as 9.2 µM.
For `Nc1ncc(F)c2c1ncn2[C@@H]1C[C@H](CO)[C@@H](O)[C@H]1O`, the “Ratio CC50/IC50” value in data set [1] was more than 313; in data set [2] it was less than 3; in [6], 7; in [8], more than 6.3; in [9], 11; in data set [12], more than 313. The “Ratio CC50/IC50” value in data set [13] was more than 6. Besides, the CC50 – broadly, the concentration at which the toxic effect on the cells reaches its halfway point – was more than 300 µM in data set [3]; more than 178 µM in data set [5]; more than 100 µM in [7]; more than 100 µM in [10]; 159 µM in [11]; more than 100 µM in [14]. The IC50 (usually the point on the concentration scale where inhibition reaches its midpoint) in data set [4] is 0.029 µM; with Measles morbillivirus, less than 0.32 µM; in the data set with Human betaherpesvirus 5, more than 60 µM; in the data set with Monkeypox virus, less than 0.32 µM; with Rift Valley fever virus it was 56 µM; with Vaccinia virus, 48 µM. In addition, the values for the 50% inhibitory concentration (IC50) in the data set on Human papillomavirus, in the data set on Pichinde virus and with Tacaribe virus were more than 100 µM, 24 µM and 14 µM, respectively.
Regarding `Nc1nccc2c1ncn2[C@@H]1C=C(CO)[C@@H](O)[C@H]1O`, the half-inhibitory concentration (IC50) in data set [4] is 0.0093 µM.
Take `Nc1ncc(F)c2c1ncn2[C@@H]1C[C@H](CCO)[C@@H](O)[C@H]1O`: the “Ratio CC50/IC50” value in [1] is recorded as more than 313; in data set [2] it was 177; in data set [6], 5.7; in data set [8], more than 10; in [9], 20; in data set [12], more than 313. The “Ratio CC50/IC50” value in data set [13] was more than 5. Further, the cytotoxic concentration (CC50) in data set [3] is more than 300 µM; in data set [5], more than 264 µM; in data set [7] it was more than 100 µM; in data set [10], more than 100 µM; in data set [11] it was 128 µM; in [14] it was more than 100 µM. Moreover, the IC50 in [4] is 0.009 µM; in the data set on Measles morbillivirus, less than 0.32 µM; in the data set on Human betaherpesvirus 5, 1.49 µM; with Monkeypox virus, less than 0.32 µM; in the data set with Rift Valley fever virus it was 34 µM; in the data set on Vaccinia virus it was 55.2 µM. The IC50 was more than 100 µM with Human papillomavirus, 30 µM in the data set on Pichinde virus and 6.4 µM in the data set with Tacaribe virus.
Consider `Nc1ncc(F)c2c1ncn2[C@@H]1C[C@H](O)[C@@H](O)[C@H]1O`, for which the “Ratio CC50/IC50” value in data set [1] is recorded as more than 313; in [15], more than 4; in data set [12] it was more than 313; in data set [13], more than 2. Also, the CC50 in [3] was more than 300 µM; in data set [5], more than 300 µM; in data set [7], more than 100 µM; in data set [10], more than 100 µM; in [11], more than 300 µM; in [14], more than 100 µM. For the same compound, the IC50 is 0.0058 µM in data set [4]; less than 0.32 µM with Measles morbillivirus; more than 300 µM in the data set with Human betaherpesvirus 5; less than 0.32 µM in the data set with Monkeypox virus; more than 300 µM in the data set with Rift Valley fever virus; 142 µM with Vaccinia virus. The IC50 in the data set on Human papillomavirus is 23.9 µM; in the data set with Pichinde virus, more than 300 µM; with Tacaribe virus, more than 300 µM.
